# Laboratory results: patent US20140242093A1, “METHODS AND COMPOSITIONS FOR MODULATING THE INNATE IMMUNE RESPONSE AND/OR MYOGENESIS IN A MAMMALIAN SUBJECT” (FRED HUTCHINSON CANCER RESEARCH CENTER, priority 2011, published 2014)
# System: control human primary myoblasts
# Assay: Expression microarray of primary myoblasts transduced with lentivirus carrying DUX4-fl, DUX4-s or GFP
# Protocol: Primary human myoblasts were collected and cultured as previously described (Snider et al., 2010). Primary myoblasts were maintained at or below 70% confluency for proliferation. For differentiation, cells were allowed to reach 95-100% confluency in growth medium. Once confluency was reached, the cells were changed to differentiation medium (F10 media supplemented with 1% horse serum, 10 μg/mL insulin, and 10 μg/mL transferrin, penicillin/streptomycin) and maintained for 4 days. Human RD cells were grown in DMEM in 10% bovine calf serum (Hyclone) and penicillin/streptomycin. The primary myoblasts were transduced with lentivirus carrying DUX-fl, DUX4- or GFP (MOI=15).
# Expression microarrays were performed on the transduced cells at 24 hours after transduction as follows. […] Samples were analyzed by Illumina Human Whole Genome microarrays. Probe intensities were corrected, normalized, and summarized by the Lumi package of Bioconductor (Du et al., 2008). Differentially expressed genes were identified by the LIMMA package of Bioconductor (Wettenhall and Smyth, 2004). Gene set enrichment analysis (GSEA) was performed using the Bioconductor GOstats package (Falcon and Gentleman, 2007).
substance,measurement,setting,value
"DUX4-fl: full-length DUX4 protein (SEQ ID NO:110), expressed from lentiviral or pCS2 vectors or in vitro translated",fc of MYPOP (expression array),Refseq NM_001012643.2,−1.053
same,PRAMEF5 expression fc,Refseq NM_001013407.1,7.35
same,HNRNPCL1 expression fc,Refseq NM_001013631.1,3.484
same,RFPL4B expression fc,Refseq NM_001013734.2,8.34
same,ODF3B fc,Refseq NM_001014440.2,−1.1
same,DNAJC25 expression fc,Refseq NM_001015882.2,1.995
same,KCNK2 fc,Refseq NM_001017425.2,−1.154
same,CCDC58 expression fc,Refseq NM_001017928.2,2.001
same,fc of ATP6AP1L (expression array),Refseq NM_001017971.1,−1.049
same,SH3PXD2B fc,Refseq NM_001017995.1,−1.101
same,ZBTB16 expression fc,"Refseq NM_001018011.1, cultured human skeletal muscle",−2.037
same,fc of SERBP1 (expression array),Refseq NM_001018069.1,−0.241
same,SOD2 expression fc,"Refseq NM_001024466.1, cultured human skeletal muscle",−4.617
same,fc of RUNX2 (expression array),Refseq NM_001024630.2,−1.019
same,CLK1 expression fc,Refseq NM_001024646.1,1.84
same,fc of TGFBR2 (expression array),Refseq NM_001024847.1,−1.017
same,TSPAN4 fc,Refseq NM_001025235.1,−1.175
same,fc of RFX5 (expression array),Refseq NM_001025603.1,−1.052
same,PSRC1 fc,Refseq NM_001032290.1,−1.126
same,OAS1 expression fc,"Refseq NM_001032409.1, cultured human skeletal muscle",−4.607
same,ENTPD8 expression fc,Refseq NM_001033113.1,4.073
same,RHOT1 fc,Refseq NM_001033566.1,−1.074
same,CYFIP2 fc,Refseq NM_001037333.1,−1.081
same,fc of PHYH (expression array),Refseq NM_001037537.1,−1.007
same,fc of EFEMP1 (expression array),Refseq NM_001039348.1,−1.03
same,PRAMEF10 expression fc,Refseq NM_001039361.1,6.064
same,ETNK1 expression fc,Refseq NM_001039481.1,1.892
same,LOC440053 expression fc,Refseq NM_001039615.1,3.919
same,CBLN3 fc,Refseq NM_001039771.2,−1.144
same,HEY1 expression fc,Refseq NM_001040708.1,2.18
same,fc of UHRF1 (expression array),Refseq NM_001048201.1,−0.2091
same,DBNDD2 expression fc,Refseq NM_001048223.1,2.987
same,NCOR2 fc,Refseq NM_001077261.1,−1.177
same,fc of NFKB2 (expression array),Refseq NM_001077493.1,−1.011
same,fc of SLC29A1 (expression array),Refseq NM_001078174.1,−0.5111
same,DYNC2H1 expression fc,Refseq NM_001080463.1,3.721
same,PRAMEF12 expression fc,Refseq NM_001080830.1,7.802
same,FRG2B expression fc,Refseq NM_001080998.1,1.993
same,DEFB103A expression fc,Refseq NM_001081551.2,6.442
same,CPSF4 fc,Refseq NM_001081559.1,−1.171
same,fc of GPD2 (expression array),Refseq NM_001083112.1,−0.3652
same,fc of GPR1 (expression array),Refseq NM_001098199.1,−1.054
same,HLA-F expression fc,"Refseq NM_001098479.1, cultured human skeletal muscle",−1.932
same,RFPL3 expression fc,Refseq NM_001098535.1,8.144
same,PRR4 expression fc,Refseq NM_001098538.1,3.562
same,FAM156B fc,Refseq NM_001099684.1,−1.113
same,PRAMEF19 expression fc,Refseq NM_001099790.1,2.336
same,PRAMEF20 expression fc,Refseq NM_001099852.1,4.795
same,PRAMEF14 expression fc,Refseq NM_001099854.1,3.186
same,PRAMEF21 expression fc,Refseq NM_001100114.1,2.487
same,LOC729384 expression fc,Refseq NM_001105522.1,6.832
same,KHDC1L expression fc,Refseq NM_001126063.2,8.012
same,CSAG3 expression fc,Refseq NM_001129826.1,5.871
same,LOC399940 expression fc,Refseq NM_001136118.1,4.727
same,LOC440563 expression fc,Refseq NM_001136561.1,5.312
same,FAM90A7 expression fc,Refseq NM_001136572.1,3.199
same,CYCSL1 expression fc,Refseq NR_001561.1,2.506
same,MGC10997 expression fc,Refseq NR_001565.1,2.426
same,FTHL3 expression fc,"Refseq NR_002201.1, cultured human skeletal muscle",−2.577
same,FTHL11 expression fc,"Refseq NR_002204.1, cultured human skeletal muscle",−2.085
same,FTHL12 expression fc,"Refseq NR_002205.1, cultured human skeletal muscle",−1.948
same,RPPH1 expression fc,Refseq NR_002312.1,2.037
same,RFPL1S expression fc,Refseq NR_002727.1,8.396
same,SNORD56 expression fc,Refseq NR_002739.1,1.855
same,fc of TRIM78P (expression array),Refseq NR_002777.2,−0.9991
same,HNRPA1L-2 expression fc,Refseq NR_002944.2,1.921
same,RMRP expression fc,Refseq NR_003051.2,2.267
same,fc of LOC400759 (expression array),Refseq NR_003133.1,−0.7622
same,HNRPDL expression fc,Refseq NR_003249.1,2.175
same,SDHALP1 expression fc,Refseq NR_003264.1,3.276
same,RN5S9 expression fc,Refseq NR_023371.1,4.191
same,KIAA0114 expression fc,Refseq NR_024031.1,1.841
same,NCRNA00092 expression fc,Refseq NR_024129.1,2.395
same,MIR503 expression fc,Refseq NR_030228.1,1.91
same,MIR2278 expression fc,Refseq NR_031755.1,2.412
same,USP41 fc,Refseq XM_036729.5,−1.127
same,TRIM64 expression fc,Refseq XM_061890.11,4.943
same,LOC136157 expression fc,Refseq XM_069743.3,8.299
same,LOC196120 expression fc,Refseq XM_114987.3,8.179
same,LOC646066 expression fc,Refseq XM_116384.2,4.391
same,LOC284428 expression fc,Refseq XM_208203.5,8.023
same,LOC285697 expression fc,Refseq XM_210642.1,3.783
same,LOC342934 expression fc,Refseq XM_292724.5,2.988
same,LOC340096 expression fc,Refseq XM_293943.2,7.382
same,LOC389633 expression fc,Refseq XM_372030.4,1.807
same,LOC390031 expression fc,Refseq XM_372343.1,8.331
same,LOC390530 fc,Refseq XM_372543.2,−1.104
same,LOC391045 expression fc,Refseq XM_372780.3,2.166
same,LOC391092 expression fc,Refseq XM_372792.2,1.837
same,LOC391742 expression fc,Refseq XM_373056.1,5.733
same,LOC391747 expression fc,Refseq XM_373059.2,2.789
same,LOC391761 expression fc,Refseq XM_373073.2,3.009
same,LOC391764 expression fc,Refseq XM_373076.3,5.821
same,LOC391766 expression fc,Refseq XM_373077.2,5.724
same,LOC391767 expression fc,Refseq XM_373078.1,5.492
same,LOC399937 expression fc,Refseq XM_374917.3,1.841
same,LOC399939 expression fc,Refseq XM_374919.3,6.931
same,LOC401860 expression fc,Refseq XM_377445.3,4.272
same,LOC402199 expression fc,Refseq XM_377875.2,4.392
same,LOC646103 expression fc,Refseq XM_377879.3,4.658
same,LOC402207 expression fc,Refseq XM_377884.2,4.903
same,LOC440040 expression fc,Refseq XM_495873.4,7.534
same,FAM90A9 expression fc,Refseq XM_496956.4,2.248
same,FAM90A12 expression fc,Refseq XM_496961.3,1.774
same,LOC441584 expression fc,Refseq XM_497258.1,7.781
same,LOC441019 expression fc,"Refseq XM_498969.2, cultured human skeletal muscle",−2.107
same,PEG10 expression fc,Refseq XM_499343.2,1.935
same,LOC642362 expression fc,Refseq XM_925891.1,8.016
same,LOC642538 expression fc,Refseq XM_926027.2,1.792
same,LOC653111 expression fc,Refseq XM_926073.2,3.139
same,LOC642843 expression fc,Refseq XM_926241.2,2.728
same,LOC653192 expression fc,Refseq XM_926437.2,8.228
same,LOC653194 expression fc,Refseq XM_926449.1,3.633
same,LOC643731 expression fc,Refseq XM_927019.1,1.903
same,LOC653506 fc,Refseq XM_927769.1,−1.144
same,LOC645137 expression fc,Refseq XM_928167.2,2.323
same,fc of LOC653583 (expression array),Refseq XM_928224.2,−1.02
same,LOC645373 expression fc,Refseq XM_928412.1,2.891
same,LOC645558 expression fc,Refseq XM_928577.2,4.803
same,LOC645669 expression fc,Refseq XM_928680.1,8.202
same,LOC653656 expression fc,Refseq XM_928688.3,7.897
same,LOC653657 expression fc,Refseq XM_928697.2,7.857
same,LOC646698 expression fc,Refseq XM_929644.2,6.012
same,LOC646754 expression fc,Refseq XM_929704.2,5.11
same,LOC646914 expression fc,Refseq XM_929877.1,2.569
same,fc of LOC338758 (expression array),Refseq XM_931359.2,−1.005
same,LOC644739 fc,Refseq XM_933679.1,−1.165
same,LOC642127 expression fc,Refseq XM_936272.2,6.112
same,LOC642219 expression fc,Refseq XM_936370.2,4.799
same,LOC285299 expression fc,Refseq XM_936463.2,2.84
same,fc of BEXL1 (expression array),Refseq XM_936467.2,−1.018
same,LOC653978 expression fc,Refseq XM_937424.1,3.554
same,LOC646508 expression fc,Refseq XM_937570.1,2.498
same,LOC648533 expression fc,Refseq XM_937587.1,2.284
same,LOC342933 expression fc,Refseq XM_938208.2,3.752
same,PRAMEF17 expression fc,Refseq XM_938420.2,4.223
same,fc of LOC649425 (expression array),Refseq XM_938508.1,−0.2065
same,LOC649563 expression fc,Refseq XM_938635.2,2.425
same,LOC650167 expression fc,Refseq XM_939249.1,3.363
same,LOC654101 expression fc,Refseq XM_939354.1,5.034
same,MGC61598 expression fc,Refseq XM_939432.1,2.969
same,LOC651308 expression fc,Refseq XM_940443.1,8.169
same,ZC3H5 fc,Refseq XM_940903.2,−1.155
same,LOC651816 expression fc,Refseq XM_941060.1,1.836
same,LOC652080 expression fc,Refseq XM_941404.1,1.987
same,LOC652349 expression fc,Refseq XM_941777.1,2.835
same,LOC652433 expression fc,Refseq XM_941875.1,3.022
same,LOC651390 expression fc,Refseq XM_942401.1,1.937
same,LOC727846 expression fc,Refseq XM_001126140.1,2.175
same,LOC730278 fc,Refseq XM_001126471.1,−1.092
same,PARP10 expression fc,"Refseq XM_001127571.1, cultured human skeletal muscle",−2.064
same,fc of LOC730996 (expression array),Refseq XM_001128017.1,−0.2204
same,LOC342900 expression fc,Refseq XM_001129035.1,7.391
same,LOC729368 expression fc,Refseq XM_001130065.2,5.416
same,LOC729458 expression fc,Refseq XM_001130308.2,8.247
same,LOC729694 expression fc,Refseq XM_001131061.1,4.029
same,LOC729698 expression fc,Refseq XM_001131072.1,3.539
same,LOC729700 expression fc,Refseq XM_001131081.1,4.817
same,LOC729706 expression fc,Refseq XM_001131091.1,4.227
same,LOC729724 expression fc,Refseq XM_001131132.1,3.038
same,LOC729731 expression fc,Refseq XM_001131140.1,5.007
